Assay results published in patent US9862716B2, “TRKA kinase inhibitors, compositions and methods thereof” (Merck Sharp & Dohme Corp., priority 2014, dated 2018).

molecular target: T1, human TrkA receptor (Homo sapiens, UniProt P04629); assay: DiscoverX PathHunter TrkA functional assay (NGF-stimulated U2OS cells); type: cell-based; conditions: U2OS cells expressing human TrkA-PK, Shc1-EA and p75NTR; compound 1 h, then NGF at ~80% of maximal response for 3 h; luminescence
T1 construct: host or cells: U2OS cells (PathHunter cell line)
T1 sequence (P04629 33-796): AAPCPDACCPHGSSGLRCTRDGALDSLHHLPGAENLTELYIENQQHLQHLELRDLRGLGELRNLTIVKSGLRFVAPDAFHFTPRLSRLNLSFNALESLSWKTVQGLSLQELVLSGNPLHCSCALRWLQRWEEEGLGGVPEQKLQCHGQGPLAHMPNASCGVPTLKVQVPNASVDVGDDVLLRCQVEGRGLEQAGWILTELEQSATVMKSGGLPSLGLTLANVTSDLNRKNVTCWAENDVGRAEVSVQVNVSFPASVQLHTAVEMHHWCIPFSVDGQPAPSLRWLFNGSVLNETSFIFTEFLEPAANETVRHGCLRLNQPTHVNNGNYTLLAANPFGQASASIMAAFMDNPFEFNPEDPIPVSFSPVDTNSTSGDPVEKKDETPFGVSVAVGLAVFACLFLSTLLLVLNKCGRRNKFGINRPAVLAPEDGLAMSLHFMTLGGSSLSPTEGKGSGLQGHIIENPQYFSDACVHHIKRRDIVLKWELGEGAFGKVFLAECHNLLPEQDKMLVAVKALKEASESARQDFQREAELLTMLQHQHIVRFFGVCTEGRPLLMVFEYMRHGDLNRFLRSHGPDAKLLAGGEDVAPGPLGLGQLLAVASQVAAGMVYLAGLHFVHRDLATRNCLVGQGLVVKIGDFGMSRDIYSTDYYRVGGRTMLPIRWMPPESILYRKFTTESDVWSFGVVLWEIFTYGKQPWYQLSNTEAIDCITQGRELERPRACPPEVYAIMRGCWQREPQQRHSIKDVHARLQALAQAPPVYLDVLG

IC50	Structure (SMILES)
0.79 nM	C[C@@H](O)c1ccn2c(NC(=O)c3ccc(C(F)(F)F)c(-c4ccn(C)n4)c3)c(-c3ccccc3)nc2c1 (single isomer, unassigned) [Compound 42]
1.9 nM	CC(O)c1ccc2nc(-c3ccccc3)c(NC(=O)c3ccc(C(F)(F)F)c(-c4ccn(C)n4)c3)n2c1 (single isomer, unassigned) [Compound 48, (R or S)-N-[6-(1-hydroxyethyl)-2-phenylimidazo[1,2-a]pyridin-3-yl]-3-(1-methyl-1H-pyrazol-3-yl)-4-(trifluoromethyl) benzamide]
0.51 nM	Cn1ccc(-c2cc(C(=O)Nc3c(-c4ccccc4)nc4cc(C(O)CO)ccn34)ccc2C(F)(F)F)n1 (single isomer, unassigned) [Compound 49, (R or S)-N-[7-(1,2-dihydroxyethyl)-2-phenylimidazo[1,2-a]pyridin-3-yl]-3-(1-methyl-1H-pyrazol-3-yl)-4-(trifluoromethyl) benzamide]
3.5 nM	CC(c1ccn2c(NC(=O)c3cc(-c4ccn(C)n4)c(C(F)(F)F)cc3F)c(-c3ccccc3)nc2c1)N(C)C (single isomer, unassigned) [Compound 51, (R or S)-N-{7-[1-(dimethylamino)ethyl]-2-phenylimidazo[1,2-a]pyridin-3-yl}-2-fluoro-5-(1-methyl-1H-pyrazol-3-yl)-4-(trifluoromethyl) benzamide]
4.9 nM	Cn1ccc(-c2cc(C(=O)Nc3c(-c4ccccc4)nc4ccc(C(O)CO)cn34)ccc2C(F)(F)F)n1 (single isomer, unassigned) [Compound 52, (R or S)-N-[6-(1,2-dihydroxyethyl)-2-phenylimidazo[1,2-a]pyridin-3-yl]-3-(1-methyl-1H-pyrazol-3-yl)-4-(trifluoromethyl) benzamide]
0.4 nM	CC(O)c1ccn2c(NC(=O)c3cc(-c4ccn(C)n4)c(C(F)(F)F)cc3F)c(-c3ccccc3)nc2c1 (single isomer, unassigned) [Compound 54, (R or S)-2-fluoro-N-[7-(1-hydroxyethyl)-2-phenylimidazo[1,2-a]pyridin-3-yl]-5-(1-methyl-1H-pyrazol-3-yl)-4-(trifluoromethyl) benzamide]
0.37 nM	CC(O)c1ccn2c(NC(=O)c3cc(-c4ccn(C)n4)c(C(F)(F)F)cc3F)c(-c3ccccc3)nc2c1 (single isomer, unassigned) [Compound 55, (R or S)-2-fluoro-N-[7-(1-hydroxyethyl)-2-phenylimidazo[1,2-a]pyridin-3-yl]-5-(1-methyl-1H-pyrazol-3-yl)-4-(trifluoromethyl) benzamide]
1 nM	CC(c1ccn2c(NC(=O)c3ccc(C(F)(F)F)c(-c4ccn(C)n4)c3)c(-c3ccccc3)nc2c1)N(C)C (single isomer, unassigned) [Compound 56, (R or S)-N-{7-[1-(dimethylamino)ethyl]-2-phenylimidazo[1,2-a]pyridin-3-yl}-3-(1-methyl-1H-pyrazol-3-yl)-4-(trifluoromethyl) benzamide]
1.1 nM	CC(O)c1ccn2c(NC(=O)c3cc(-c4ncccn4)c(C(F)(F)F)cc3F)c(-c3ccccc3)nc2c1 (single isomer, unassigned) [Compound 57, (R or S)-2-fluoro-N-[7-(1-hydroxyethyl)-2-phenylimidazo[1,2-a]pyridin-3-yl]-5-pyrimidin-2-yl-4-(trifluoromethyl) benzamide]
0.92 nM	CC(O)c1ccn2c(NC(=O)c3cc(-c4ncccn4)c(C(F)(F)F)cc3F)c(-c3ccccc3)nc2c1 (single isomer, unassigned) [Compound 58, (R or S)-2-fluoro-N-[7-(1-hydroxyethyl)-2-phenylimidazo[1,2-a]pyridin-3-yl]-5-pyrimidin-2-yl-4-(trifluoromethyl) benzamide]
2.4 nM	Cc1coc(-c2cc(C(=O)Nc3c(-c4ccccc4)nc4cc(C(C)O)ccn34)ccc2C(F)(F)F)n1 (single isomer, unassigned) [Compound 61, (R or S)-N-[7-(1-hydroxyethyl)-2-phenylimidazo[1,2-a]pyridin-3-yl]-3-(4-methyl-1,3-oxazol-2-yl)-4-(trifluoromethyl) benzamide]
1.5 nM	Cc1coc(-c2cc(C(=O)Nc3c(-c4ccccc4)nc4cc(C(C)O)ccn34)ccc2C(F)(F)F)n1 (single isomer, unassigned) [Compound 62, (R or S)-N-[7-(1-hydroxyethyl)-2-phenylimidazo[1,2-a]pyridin-3-yl]-3-(4-methyl-1,3-oxazol-2-yl)-4-(trifluoromethyl) benzamide]
1.6 nM	Cn1ccc(-c2cc(C(=O)Nc3c(-c4ccccc4)nc4cc(C(O)C(F)(F)F)ccn34)ccc2C(F)(F)F)n1 (single isomer, unassigned) [Compound 63, (R or S)-3-(1-methyl-1H-pyrazol-3-yl)-N-[2-phenyl-7-(2,2,2-trifluoro-1-hydroxyethyl)imidazo[1,2-a]pyridin-3-yl]-4-(trifluoromethyl) benzamide]
1.1 nM	Cn1ccc(-c2cc(C(=O)Nc3c(-c4ccccc4)nc4cc(C(O)C(F)(F)F)ccn34)ccc2C(F)(F)F)n1 (single isomer, unassigned) [Compound 64, (R or S)-3-(1-methyl-1H-pyrazol-3-yl)-N-[2-phenyl-7-(2,2,2-trifluoro-1-hydroxyethyl)imidazo[1,2-a]pyridin-3-yl]-4-(trifluoromethyl) benzamide]
12 nM	Cn1ccc(-c2cc(C(=O)Nc3c(-c4ccccc4)nc4ccc(C(O)C(F)(F)F)cn34)ccc2C(F)(F)F)n1 (single isomer, unassigned) [Compound 65, (R or S)-3-(1-methyl-1H-pyrazol-3-yl)-N-[2-phenyl-6-(2,2,2-trifluoro-1-hydroxyethyl)imidazo[1,2-a]pyridin-3-yl]-4-(trifluoromethyl) benzamide]
4.5 nM	Cn1ccc(-c2cc(C(=O)Nc3c(-c4ccccc4)nc4ccc(C(O)C(F)(F)F)cn34)ccc2C(F)(F)F)n1 (single isomer, unassigned) [Compound 66, (R or S)-3-(1-methyl-1H-pyrazol-3-yl)-N-[2-phenyl-6-(2,2,2-trifluoro-1-hydroxyethyl)imidazo[1,2-a]pyridin-3-yl]-4-(trifluoromethyl) benzamide]
5.1 nM	CC(O)c1ccn2c(NC(=O)c3ccc(C(F)(F)F)c(-c4ncccn4)c3)c(-c3ccccc3)nc2c1 (single isomer, unassigned) [Compound 67, (R or S)-N-[7-(1-hydroxyethyl)-2-phenylimidazo[1,2-a]pyridin-3-yl]-3-pyrimidin-2-yl-4-(trifluoromethyl) benzamide]
1.4 nM	CC(O)c1ccn2c(NC(=O)c3cc(-c4cc[nH]n4)c(C(F)(F)F)cc3F)c(-c3ccccc3)nc2c1 (single isomer, unassigned) [Compound 73, (R or S)-2-fluoro-N-[7-(1-hydroxyethyl)-2-phenylimidazo[1,2-a]pyridin-3-yl]-5-(1H-pyrazol-3-yl)-4-(trifluoromethyl) benzamide]
1.8 nM	CC(O)c1ccn2c(NC(=O)c3cc(-c4cc[nH]n4)c(C(F)(F)F)cc3F)c(-c3ccccc3)nc2c1 (single isomer, unassigned) [Compound 74, (R or S)-2-fluoro-N-[7-(1-hydroxyethyl)-2-phenylimidazo[1,2-a]pyridin-3-yl]-5-(1H-pyrazol-3-yl)-4-(trifluoromethyl) benzamide]
4 nM	CC(O)c1ccn2c(NC(=O)c3ccc(C(F)(F)F)c(-c4ccn(C(F)F)n4)c3)c(-c3ccccc3)nc2c1 (single isomer, unassigned) [Compound 77, (R or S)-3-[1-(difluoromethyl)-1H-pyrazol-3-yl]-N-[7-(1-hydroxyethyl)-2-phenylimidazo[1,2-a]pyridin-3-yl]-4-(trifluoromethyl) benzamide]
4.8 nM	CC(O)c1ccn2c(NC(=O)c3ccc(C(F)(F)F)c(-c4ccn(C(F)F)n4)c3)c(-c3ccccc3)nc2c1 (single isomer, unassigned) [Compound 78, (R or S)-3-[1-(difluoromethyl)-1H-pyrazol-3-yl]-N-[7-(1-hydroxyethyl)-2-phenylimidazo[1,2-a]pyridin-3-yl]-4-(trifluoromethyl) benzamide]
6.5 nM	CC(O)c1ccc2[nH]c(-c3ccccc3)c(NC(=O)c3cc(-c4ncccn4)c(C(F)(F)F)cc3F)c2c1 (single isomer, unassigned) [Compound 94, (R or S)-2-fluoro-N-[5-(1-hydroxyethyl)-2-phenyl-1H-indol-3-yl]-5-pyrimidin-2-yl-4-(trifluoromethyl) benzamide]
4.9 nM	CC(O)c1ccc2[nH]c(-c3ccccc3)c(NC(=O)c3cc(-c4ncccn4)c(C(F)(F)F)cc3F)c2c1 (single isomer, unassigned) [Compound 95, (R or S)-2-fluoro-N-[5-(1-hydroxyethyl)-2-phenyl-1H-indol-3-yl]-5-pyrimidin-2-yl-4-(trifluoromethyl) benzamide]
1.9 nM	CC(O)c1ccn2nc(-c3ccccc3)c(NC(=O)c3ccc(C(F)(F)F)c(-c4ccn(C)n4)c3)c2c1 (single isomer, unassigned) [Compound 97, (R or S)-N-[5-(1-hydroxyethyl)-2-phenylpyrazolo[1,5-a]pyridin-3-yl]-3-(1-methyl-1H-pyrazol-3-yl)-4-(trifluoromethyl) benzamide]
3.3 nM	CC(O)c1ccn2nc(-c3ccccc3)c(NC(=O)c3ccc(C(F)(F)F)c(-c4ccn(C)n4)c3)c2c1 (single isomer, unassigned) [Compound 98, (R or S)-N-[5-(1-hydroxyethyl)-2-phenylpyrazolo[1,5-a]pyridin-3-yl]-3-(1-methyl-1H-pyrazol-3-yl)-4-(trifluoromethyl) benzamide]
1.7 nM	CC(O)c1ccn2nc(-c3ccccc3)c(NC(=O)c3cc(-c4ccn(C)n4)c(C(F)(F)F)cc3F)c2c1 (single isomer, unassigned) [Compound 106, (R or S)-2-fluoro-N-[5-(1-hydroxyethyl)-2-phenylpyrazolo[1,5-a]pyridin-3-yl]-5-(1-methyl-1H-pyrazol-3-yl)-4-(trifluoromethyl) benzamide]
